In general, IC50 refers to the concentration that gives 50% inhibition. A word on the melting point: it is the temperature, or range, at which the solid turns liquid. A word on the pIC50: it is the IC50 on a negative log10 scale, so that one unit is a factor of ten.

Structures are written as SMILES. pIC50: −log10 of the molar value. Like-named read-outs stand apart in the source and are kept apart here.

IC50 and melting point data for 32 compounds are collected here from US7868037B2 (PTC Therapeutics, Inc., priority 2004, dated 2011).

Data set [1] relates to HCV replicon. As to the kind of experiment: microbe, parasite or virus in culture. It counts as cell-based, hepatitis C virus. The following applies: Hepatitis C virus; for IC50: read-out: Replicon IC50 μM; for pIC50: read-out: Replicon IC50. Background: In antiviral work, replicon cells carry a viral genome segment that copies itself.

`CCn1c(-c2ccc(OCCNC(C)=O)cc2)c(C#N)c2ccc(OC)cc21` [Compound 274, N-{2-[4-(3-cyano-1-ethyl-6-methoxy-1H-indol-2-yl)-phenoxy]-ethyl}acetamide]: the melting point lay within 166 to 172 °C. Further, in data set [1], the IC50 is more than 2 µM.
The matching figures for `CCNC(=O)NCCOc1ccc(-c2c(C#N)c3ccc(OC)cc3n2CC)cc1` [Compound 279, 1-{2-[4-(3-cyano-1-ethyl-6-methoxy-1H-indol-2-yl)-phenoxy]ethyl}-3-ethyl-urea]: 197 to 202 °C and more than 2 µM.
As to `CCn1c(-c2ccc(OCCNC=O)cc2)c(C#N)c2ccc(OC)cc21` [Compound 280, N-{2-[4-(3-cyano-1-ethyl-6-methoxy-1H-indol-2-yl)-phenoxy]ethyl}formamide], the melting point fell in the range of 89 to 95 °C. Further, in data set [1], the IC50 is more than 2 µM.
Take `CCn1c(-c2ccc(OCC(=O)N3CC[C@H](O)C3)cc2)c(C#N)c2ccc(OC)cc21` [Compound 285, 1-ethyl-2-{4-[2-(3-hydroxypyrrolidin-1-yl)-2-oxo-ethoxy]phenyl}-6-methoxy-1H-indole-3-carbonitrile]: the melting point fell in the range of 185 to 190 °C. The IC50 in data set [1] is more than 2 µM.
In the case of `CCn1c(-c2cccc(O)c2)c(C#N)c2ccc(OC)cc21` [Compound 288, 1-ethyl-2-(3-hydroxyphenyl)-6-methoxy-1H-indole-3-carbonitrile], the melting point fell in the range of 194 to 199 °C. Also, the IC50 in data set [1] was more than 2 µM.
The compound `CCn1c(-c2ccc(O)c(N)c2)c(C#N)c2ccc(OC)cc21` [Compound 322, 2-(3-amino-4-hydroxyphenyl)-1-ethyl-6-methoxy-1H-indole-3-carbonitrile] showed a melting point of 223 to 230 °C. The IC50 in data set [1] was more than 2 µM.
Consider `CCn1c(-c2ccc(O)c(NC(=O)CCl)c2)c(C#N)c2ccc(OC)cc21` [Compound 333, 2-chloro-N-[5-(3-cyano-1-ethyl-6-methoxy-1H-indol-2-yl)-2-hydroxyphenyl]acetamide], for which the melting point lay within 237 to 240 °C. Moreover, the IC50 in data set [1] lay within 0.5 to 2 µM.
`CCn1c(-c2ccc3c(c2)NC(=O)CO3)c(C#N)c2ccc(OC)cc21` [Compound 334, 1-ethyl-6-methoxy-2-(3-oxo-3,4-dihydro-2H-benzo[1,4]oxazin-6-yl)-1H-indole-3-carbonitrile]: the melting point is 242 to 246 °C. For the same compound, the IC50 in data set [1] fell in the range of 0.5 to 2 µM.
The matching figures for `CCn1c(-c2ccc3c(c2)N(C)C(=O)CO3)c(C#N)c2ccc(OC)cc21` [Compound 339, 1-ethyl-6-methoxy-2-(4-methyl-3-oxo-3,4,-dihydro-2H-benzo[1,4]oxazin-6-yl)-1H-indole-3-carbonitrile]: 215 to 219 °C and 0.5 to 2 µM.
The matching figures for `CCn1c(-c2ccc3[nH]c(=O)oc3c2)c(C#N)c2ccc(OC)cc21` [Compound 340, 1-ethyl-6-methoxy-2-(2-oxo-2,3-dihydro-benzooxazol-6-yl)-1H-indole-3-carbonitrile]: 243 to 248 °C and more than 2 µM.
In turn, `CCn1c(-c2ccc(Nc3nc(-c4ccccc4)nc4ccccc34)cc2)c(C#N)c2ccc(OC)cc21` [Compound 458, 1-ethyl-6-methoxy-2-[4-(2-phenylquinazolin-4-ylamino)-phenyl]-1H-indole-3-carbonitrile] gave a melting point of 272 to 273 °C. Moreover, the pIC50 in data set [1] was less than 5.70.
As to `CCn1c(-c2ccc(NS(C)(=O)=O)cc2)c(C#N)c2ccc(OCCN3CCOCC3)cc21` [Compound 478, N-{4-[3-cyano-1-ethyl-6-(2-morpholin-4-yl-ethoxy)-1H-indol-2-yl]-phenyl}methanesulfonamide], the melting point lay in the range of 172 to 175 °C. In addition, in data set [1], the pIC50 is more than 6.30.
Consider `CCn1c(I)c(C#N)c2cc([N+](=O)[O-])c(OC)cc21` [Compound 499, 1-ethyl-2-iodo-6-methoxy-5-nitro-1H-indole-3-carbonitrile], for which the melting point is 235 to 250 °C. Moreover, the pIC50 in data set [1] is more than 6.30.
`CCn1c(-c2ccc(N3CCCS3(=O)=O)cc2)c(C#N)c2ccc(OC(C)C)cc21` [Compound 666, 2-[4-(1,1-dioxo-1λ^6-isothiazolidin-2-yl)phenyl]-1-ethyl-6-isopropoxy-1H-indole-3-carbonitrile] yielded a melting point of 207 to 209 °C. Further, in data set [1], the IC50 was less than 0.5 µM.
For the compound `CCn1c(-c2ccc(N(C)S(=O)(=O)CCN3CCOCC3)cc2)c(C#N)c2ccc(OC)cc21` [Compound 668], the melting point was 171 to 174 °C. In addition, the IC50 in data set [1] fell in the range of 0.5 to 2 µM.
`COc1ccc2c(C#N)c(-c3ccc(N4CCCS4(=O)=O)cc3)n(CC3CC3)c2c1` [Compound 716, 2-[4-(1,1-dioxidoisothiazolidin-2-yl)phenyl]-1-cyclopropylmethyl-6-methoxy-1H-indole-3-carbonitrile] had a melting point of 204 to 205 °C. For the same compound, the IC50 in data set [1] was less than 0.5 µM.
Compound `CCn1c(-c2ccc(N3CCNS3(=O)=O)cc2)c(C#N)c2ccc(OC)cc21` [Compound 725, 2-[4-(1,1-dioxo-1λ^6-[1,2,5]thiadiazolidin-2-yl)phenyl]-1-ethyl-6-methoxy-1H-indole-3-carbonitrile] came in with a melting point of 215 to 216 °C. In data set [1], the IC50 is 0.5 to 2 µM.
The matching figures for `CCn1c(-c2ccc(N3CCN(C)S3(=O)=O)cc2)c(C#N)c2ccc(OC)cc21` [Compound 726, 1-ethyl-6-methoxy-2-[4-(5-methyl-1,1-dioxo-1λ^6-[1,2,5]thiadiazolidin-2-yl)-phenyl]-1H-indole-3-carbonitrile]: 221 to 222 °C and 0.5 to 2 µM.
In the case of `CCn1c(-c2ccc(N3CCCS3(=O)=O)cc2)c(C#N)c2ccc(OCCN3CCOCC3)cc21` [Compound 729, 2-[4-(1,1-dioxo-1λ^6-isothiazolidin-2-yl)-phenyl]-1-ethyl-6-(2-morpholin-4-yl-ethoxy)-1H-indole-3-carbonitrile], the melting point was in the range of 213 to 217 °C. In addition, in data set [1], the IC50 is more than 2 µM.
The matching figures for `CCn1c(-c2cccc(NC(N)=S)c2)c(C#N)c2ccc(OC)cc21` [Compound 767, [3-(3-cyano-1-ethyl-6-methoxy-1H-indol-2-yl)-phenyl]-thiourea]: 204 to 205 °C and less than 0.5 µM.
The matching figures for `CCOc1ccc2c(C#N)c(-c3ccc(NP(=O)(OCC)OCC)cc3)n(CC)c2c1` [Compound 772]: 211 to 212 °C and less than 0.5 µM.
The compound `CCOC(=O)CNC(=O)Nc1ccc(-c2c(C#N)c3ccc(OCC)cc3n2CC)cc1` [Compound 773, ethyl {3-[4-(3-cyano-6-ethoxy-1-ethyl-1H-indol-2-yl)-phenyl]-ureido}-acetate] had a melting point of 191 to 193 °C. In data set [1], the half-inhibitory concentration (IC50) lay within 0.5 to 2 µM.
For the compound `CCOc1ccc2c(C#N)c(-c3ccc(N4CC(=O)NC4=O)cc3)n(CC)c2c1` [Compound 776, 2-[4-(2,4-dioxo-imidazolidin-1-yl)phenyl]-6-ethoxy-1-ethyl-1H-indole-3-carbonitrile], the melting point lay within 257 to 258 °C. For the same compound, the IC50 in data set [1] was less than 0.5 µM.
`CCOc1ccc2c(C#N)c(-c3ccc(NC(=O)NC(Cc4ccccc4)C(=O)OC)cc3)n(CC)c2c1` (stereo not shown) [Compound 777, methyl 2-{3-[4-(3-cyano-6-ethoxy-1-ethyl-1H-indol-2-yl)-phenyl]-ureido}-3-phenyl-propionate]: the melting point lay within 124 to 127 °C. Also, in data set [1], the IC50 was less than 0.5 µM.
As to `CCOc1ccc2c(C#N)c(-c3ccc(N4C(=O)CNC4=O)cc3)n(CC)c2c1` [Compound 779, 2-[4-(2,5-dioxo-imidazolidin-1-yl)-phenyl]-6-ethoxy-1-ethyl-1H-indole-3-carbonitrile], the melting point fell in the range of 265 to 267 °C. Further, the IC50 in data set [1] was less than 0.5 µM.
Consider `CCOc1ccc2c(C(=O)N(C)C)c(-c3ccc(N4C(=O)C(C)N(C)C4=O)cc3)n(CC)c2c1` (stereo not shown) [Compound 780, N,N-Dimethyl-2-[4-(3,4-dimethyl-2,5-dioxo-imidazolidin-1-yl)-phenyl]-6-ethoxy-1-ethyl-1H-indole-3-carboxamide], for which the melting point was in the range of 219 to 220 °C. In data set [1], the IC50 was in the range of 0.5 to 2 µM.
For the compound `CCOc1ccc2c(C(=O)N(C)C)c(-c3ccc(N4C(=O)CN(C)C4=O)cc3)n(CC)c2c1` [Compound 781, N,N-Dimethyl-6-ethoxy-1-ethyl-2-[4-(3-methyl-2,5-dioxo-imidazolidin-1-yl)-phenyl]-1H-indole-3-carboxamide], the melting point fell in the range of 207 to 208 °C. In addition, the IC50 in data set [1] was less than 0.5 µM.
In turn, `CCn1c(N2CCN(C(=O)OC(C)(C)C)CC2)c(C#N)c2ccc(C(F)(F)F)cc21` [Compound 785, 4-(3-cyano-1-ethyl-6-trifluoromethyl-1H-indol-2-yl)-piperazine-1-carboxylic acid tert-butyl ester] came in with a melting point of 151 to 153 °C. Moreover, the IC50 in data set [1] was 0.5 to 2 µM.
As to `CCCn1c(-c2ccc(N3CCCS3(=O)=O)cc2)c(-c2cnco2)c2ccc(OC)cc21` [Compound 805], the melting point fell in the range of 217 to 222 °C. Also, in data set [1], the IC50 was more than 2 µM.
`CCn1c(-c2ccc(N(CCOC(C)=O)S(C)(=O)=O)cc2)c(C#N)c2ccc(OC)cc21` [Compound 815, N-(2-acetoxyethyl)-N-[4-(3-cyano-1-ethyl-6-methoxy-1H-indol-2-yl)-phenyl]methanesulfonamide] returned a melting point of 153 to 154 °C. In data set [1], the IC50 was more than 2 µM.
In turn, `CCn1c(-c2ccc(N(CCO)S(C)(=O)=O)cc2)c(C#N)c2ccc(OC)cc21` [Compound 828, N-[4-(3-cyano-1-ethyl-6-methoxy-1H-indol-2-yl)-phenyl]-N-(2-hydroxyethyl)-methanesulfonamide] came in with a melting point of 198 to 200 °C. Also, the IC50 in data set [1] lay in the range of 0.5 to 2 µM.
`CCOc1ccc(-c2c(C#N)c3ccc(Br)cc3n2CC)cc1` [Compound 831, 6-Bromo-2-(4-ethoxyphenyl)-1-ethyl-1H-indole-3-carbonitrile] gave a melting point of 140 to 141 °C. Also, the IC50 in data set [1] was more than 2 µM.
